Source: patent US20250032465A1, “METHODS OF TREATING CNS DISORDERS” (HANGZHOU HIGHLIGHTLL PHARMACEUTICAL CO., LTD, priority 2021, published 2025)
Where two headings read alike, the source gives them in different places.

What was measured:
JAK2 = biological target: T1, JAK2 (Homo sapiens, UniProt O60674); assay: JAK2 biochemical test (33P-ATP filter binding, Reaction Biology); details: read-out: Inhibition of JAK2 (IC50)
T1 construct: purchased Reaction Biology Corp, Malvern, PA (contract testing)
Experimental: (§1) The tests were conducted by Reaction Biology Corp, Malvern, PA (Anastassiadis et al. Nat Biotechnol. 2011; 29(11):1039-45). The step is briefly described as follows, using the basic reaction buffer: 20 mM Hepes (pH 7.5), 10 mM MgCl2, 1 mM EGTA, 0.02% Brij35, 0.02 mg/ml BSA, 0.1 mM Na3VO4, 2 mM DTT and 1% DMSO. The required cofactor was added to each kinase reaction respectively. Each reaction was performed according to the following reaction steps: 1) Preparing the designated substrate in the newly prepared basic reaction buffer; 2) Transferring the required cofactor to the above matrix solution; 3) Transferring the designated kinase to the substrate solution and mixing well slightly; 4) Transferring a compound of Formula (I) in DMSO to the kinase reaction mixture with Acoustic technique (Echo550; nanoliter range), culturing for 20 minutes at room temperature; 5) Introducing ^33P-ATP (specific activity: 10 μCi/μl) to the reaction mixture to trigger a reaction; 6) Culturing at room temperature and conducting a kinase reaction for 2 hours; 7) Plotting the reaction on P81 ion exchange paper; and 8) Testing the kinase activity with a filter binding assay. The results shown in Table 1 indicate that compounds of Formulae (I)-(III) are potent and selective TYK2/JAK1 inhibitors.

TYK2 [1] = biological target: T2, TYK2 (Homo sapiens, UniProt P29597); assay: TYK2 biochemical test (33P-ATP filter binding, Reaction Biology); details: read-out: Inhibition of TYK2 (IC50)
T2 construct: purchased Reaction Biology Corp, Malvern, PA (contract testing)
Experimental: as §1

JAK1 [2] = biological target: T3, JAK1 (Homo sapiens, UniProt P23458); assay: JAK1 biochemical test (33P-ATP filter binding, Reaction Biology); details: read-out: Inhibition of JAK1 (IC50)
T3 construct: purchased Reaction Biology Corp, Malvern, PA (contract testing)
Experimental: as §1

[3] = Brain penetration in rats; assay type: in vivo; details: male, rat, 10 mg/kg oral gavage, 8 hour post-dosing
Experimental: This testing was performed to test the ability of compounds to penetrate the blood-brain-barrier in rats. The testing was performed according to the following procedure: 1) For each compound, take 3 male rats with body weight of 217-228 g, formulate compound using 0.5% HPMC/water suspension at concentration of 1 mg/ml; 2) After fasting overnight, administer compound at 10 mg/kg by oral gavage; 3) Take plasma samples at 1, 2, 4, 8 hours post-dosing; 4) At 8 hour post-dosing, also take brain tissues and cerebrospinal fluid (CSF); 5) Analyze compound concentration in plasma, brain tissue, and CSF using LC-MS/MS method.

TYK2 [4] = biological target: T2, TYK2; assay: TYK2 cellular ELISA assay using NK92 cells (IL-12 and IL-18 stimulated IFNγ excretion); assay type: cell-based; details: IL-12 2 ng/ml, IL-18 5 ng/ml, 24 hours
Experimental: This testing was performed to test cellular TYK2 activity using IL-12 and IL-18 stimulated IFNγ excretion assay in NK92 cells. The testing was performed according to the following procedure: 1) Replace NK92 cell media containing IL-2 with media not containing IL-2, maintain overnight; 2) Plate NK92 cells to 96-well plate at density of ˜150,000 cell/well; 3) Add different concentrations of test article to wells, maintain in incubator at 37° C. and 5% CO2 for 1 hour; 4) Add IL-12 (final concentration: 2 ng/ml) and IL-18 (final concentration: 5 ng/ml) to stimulate for 24 hours in the above incubator; 5) After 24 hours, centrifuge at 2000 rpm for 5 min, take the supernatant and analyze according to instructions of the ELISA kit. In this assay, compounds of Formulae (II) and (III) had IC50<100 nM.

[5] = Brain penetration in mice; assay type: in vivo, C57BL/6 mice; details: male, mouse, 30 mg/kg oral gavage, 4-hour post-dosing
Experimental: This testing was performed to test the ability of compounds to penetrate the blood-brain-barrier in mice. The testing was performed according to the following procedure: 1) for each compound, take 3 male C57BL/6 mice with body weight of 17-18 g, formulate compound using 0.5% HPMC/water suspension at concentration of 3 mg/ml; 2) After fasting overnight, administer compound at 30 mg/kg by oral gavage; 3) Take plasma samples at 1, 2, 4 hours post-dosing; 4) At 4-hour post-dosing, also take brain tissues and cerebrospinal fluid (CSF) fluid; 5) Analyze compound concentration in plasma, brain tissue, and CSF fluid using LC-MS/MS method.

JAK3 = biological target: T4, JAK3 (Homo sapiens, UniProt P52333); assay: JAK3 biochemical test (33P-ATP filter binding, Reaction Biology); details: read-out: Inhibition of JAK3 (IC50)
T4 construct: purchased Reaction Biology Corp, Malvern, PA (contract testing)
T4 sequence (P52333 1-1124): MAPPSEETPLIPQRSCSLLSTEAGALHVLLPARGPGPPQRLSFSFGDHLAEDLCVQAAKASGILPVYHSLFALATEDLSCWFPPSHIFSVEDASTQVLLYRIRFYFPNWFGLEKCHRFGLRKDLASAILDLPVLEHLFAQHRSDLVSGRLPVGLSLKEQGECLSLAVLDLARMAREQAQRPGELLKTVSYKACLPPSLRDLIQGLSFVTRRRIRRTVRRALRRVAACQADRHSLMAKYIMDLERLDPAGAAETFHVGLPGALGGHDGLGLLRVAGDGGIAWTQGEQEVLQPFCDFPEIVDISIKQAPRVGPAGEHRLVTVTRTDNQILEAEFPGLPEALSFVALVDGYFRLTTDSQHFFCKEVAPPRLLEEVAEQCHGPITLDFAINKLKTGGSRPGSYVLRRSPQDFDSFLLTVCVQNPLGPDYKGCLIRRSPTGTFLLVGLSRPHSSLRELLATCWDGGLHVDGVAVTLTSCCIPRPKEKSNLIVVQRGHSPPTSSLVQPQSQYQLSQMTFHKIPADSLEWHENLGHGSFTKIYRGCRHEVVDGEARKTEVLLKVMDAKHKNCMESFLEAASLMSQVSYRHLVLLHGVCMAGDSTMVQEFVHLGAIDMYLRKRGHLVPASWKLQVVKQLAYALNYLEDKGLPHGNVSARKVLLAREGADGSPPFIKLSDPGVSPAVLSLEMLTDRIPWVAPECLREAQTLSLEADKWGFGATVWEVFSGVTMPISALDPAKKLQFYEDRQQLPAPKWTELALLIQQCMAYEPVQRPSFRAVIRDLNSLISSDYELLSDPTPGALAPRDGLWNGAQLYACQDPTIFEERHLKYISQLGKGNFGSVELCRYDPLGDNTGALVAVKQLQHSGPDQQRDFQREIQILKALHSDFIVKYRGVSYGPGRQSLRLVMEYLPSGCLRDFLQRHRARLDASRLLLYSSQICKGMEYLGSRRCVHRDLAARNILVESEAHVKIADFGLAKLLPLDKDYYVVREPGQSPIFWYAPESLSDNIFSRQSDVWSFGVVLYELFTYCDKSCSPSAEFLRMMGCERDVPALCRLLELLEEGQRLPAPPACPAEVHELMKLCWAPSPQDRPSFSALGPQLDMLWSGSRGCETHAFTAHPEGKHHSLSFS
Experimental: as §1

JAK1 [6] = biological target: T3, JAK1; assay: JAK1 cellular ELISA assay using PBMC cells (IL-6 stimulated STAT3 phosphorylation); assay type: cell-based; details: IL-6 100 ng/ml, 25 min
Experimental: This testing was performed to test cellular JAK1 activity using the IL-6 stimulated STAT3 phosphorylation assay in PBMC cells. The testing was performed according to the following procedure: 1) Plate PBMC cells to 96-well plate at density of ˜300,000 cell/well; 2) Add different concentrations of test article to wells, maintain in incubator at 37° C. and 5% CO2 for 1 hour; 3) Add IL-6 (final concentration: 100 ng/ml) to stimulate for 25 min in the above incubator; 4) After stimulation, transfer the suspension to 1.5 mL tube, centrifuge at 200 g for 5 min, collect cells, add 100 μL 1× lysate, lyse on ice for 1 hour; 5) Centrifuge at 4° C. and 12000 rpm for 10 min, take the supernatant and analyze according to instructions of the ELISA kit. In this assay, compounds of Formulae (II) and (III) had IC50<300 nM.

T3 sequence (P23458 whole entry): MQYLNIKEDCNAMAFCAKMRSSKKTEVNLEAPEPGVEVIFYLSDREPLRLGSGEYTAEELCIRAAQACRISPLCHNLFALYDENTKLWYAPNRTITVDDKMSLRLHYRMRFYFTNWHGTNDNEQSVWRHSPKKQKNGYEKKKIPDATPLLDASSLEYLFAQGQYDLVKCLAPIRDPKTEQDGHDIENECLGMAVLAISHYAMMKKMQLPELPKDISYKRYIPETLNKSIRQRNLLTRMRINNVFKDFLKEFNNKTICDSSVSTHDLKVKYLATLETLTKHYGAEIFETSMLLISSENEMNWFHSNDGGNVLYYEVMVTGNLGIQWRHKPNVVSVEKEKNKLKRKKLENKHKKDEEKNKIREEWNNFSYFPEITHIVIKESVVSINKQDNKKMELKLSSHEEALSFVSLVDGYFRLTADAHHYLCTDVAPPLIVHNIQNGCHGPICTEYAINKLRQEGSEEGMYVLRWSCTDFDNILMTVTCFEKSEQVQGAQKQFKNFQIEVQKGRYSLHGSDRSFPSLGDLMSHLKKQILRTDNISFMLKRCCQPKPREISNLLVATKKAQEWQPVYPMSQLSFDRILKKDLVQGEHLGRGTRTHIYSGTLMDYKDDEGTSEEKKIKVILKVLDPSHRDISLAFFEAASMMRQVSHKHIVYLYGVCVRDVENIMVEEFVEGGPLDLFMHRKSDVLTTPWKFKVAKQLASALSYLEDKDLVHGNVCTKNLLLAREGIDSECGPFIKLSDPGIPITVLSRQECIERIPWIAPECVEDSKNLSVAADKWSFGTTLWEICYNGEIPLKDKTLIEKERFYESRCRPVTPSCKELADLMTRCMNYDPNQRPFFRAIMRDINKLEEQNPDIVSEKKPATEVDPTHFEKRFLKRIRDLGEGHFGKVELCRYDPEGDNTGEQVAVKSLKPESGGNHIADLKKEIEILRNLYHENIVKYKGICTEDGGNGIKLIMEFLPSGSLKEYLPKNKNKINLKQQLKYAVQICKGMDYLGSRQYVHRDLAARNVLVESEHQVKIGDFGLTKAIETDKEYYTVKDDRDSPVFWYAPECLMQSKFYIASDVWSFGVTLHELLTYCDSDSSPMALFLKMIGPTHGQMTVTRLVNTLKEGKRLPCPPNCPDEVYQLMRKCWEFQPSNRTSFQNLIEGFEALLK
T2 sequence (P29597 whole entry): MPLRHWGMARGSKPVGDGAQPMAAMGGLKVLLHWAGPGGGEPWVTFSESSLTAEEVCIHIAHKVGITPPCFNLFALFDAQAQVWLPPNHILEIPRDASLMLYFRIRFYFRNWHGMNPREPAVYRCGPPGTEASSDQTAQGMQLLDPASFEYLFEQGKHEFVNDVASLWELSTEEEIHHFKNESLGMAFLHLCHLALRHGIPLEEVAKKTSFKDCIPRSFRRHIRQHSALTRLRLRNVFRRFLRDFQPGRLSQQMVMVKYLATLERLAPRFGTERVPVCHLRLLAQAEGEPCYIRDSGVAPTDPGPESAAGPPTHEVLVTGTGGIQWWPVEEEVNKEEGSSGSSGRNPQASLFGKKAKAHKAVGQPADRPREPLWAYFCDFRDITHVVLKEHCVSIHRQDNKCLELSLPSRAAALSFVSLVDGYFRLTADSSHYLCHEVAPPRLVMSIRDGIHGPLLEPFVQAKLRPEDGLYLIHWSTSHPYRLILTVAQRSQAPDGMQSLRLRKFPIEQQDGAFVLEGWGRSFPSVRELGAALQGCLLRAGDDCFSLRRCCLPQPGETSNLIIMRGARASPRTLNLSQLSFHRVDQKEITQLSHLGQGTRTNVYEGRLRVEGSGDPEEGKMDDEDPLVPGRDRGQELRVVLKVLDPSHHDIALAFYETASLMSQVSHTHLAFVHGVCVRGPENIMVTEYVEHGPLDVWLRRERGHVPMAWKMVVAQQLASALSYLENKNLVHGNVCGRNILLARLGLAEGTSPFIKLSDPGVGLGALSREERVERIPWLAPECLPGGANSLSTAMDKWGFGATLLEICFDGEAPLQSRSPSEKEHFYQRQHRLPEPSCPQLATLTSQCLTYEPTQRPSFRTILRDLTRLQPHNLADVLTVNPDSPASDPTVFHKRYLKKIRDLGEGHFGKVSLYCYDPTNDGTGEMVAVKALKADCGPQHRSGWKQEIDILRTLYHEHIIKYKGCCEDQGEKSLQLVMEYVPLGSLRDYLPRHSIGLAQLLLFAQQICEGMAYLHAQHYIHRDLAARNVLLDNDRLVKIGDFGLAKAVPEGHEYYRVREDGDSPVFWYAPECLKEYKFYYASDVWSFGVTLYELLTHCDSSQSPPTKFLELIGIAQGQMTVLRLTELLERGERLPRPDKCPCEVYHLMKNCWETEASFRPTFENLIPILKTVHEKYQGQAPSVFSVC
T1 sequence (O60674 whole entry): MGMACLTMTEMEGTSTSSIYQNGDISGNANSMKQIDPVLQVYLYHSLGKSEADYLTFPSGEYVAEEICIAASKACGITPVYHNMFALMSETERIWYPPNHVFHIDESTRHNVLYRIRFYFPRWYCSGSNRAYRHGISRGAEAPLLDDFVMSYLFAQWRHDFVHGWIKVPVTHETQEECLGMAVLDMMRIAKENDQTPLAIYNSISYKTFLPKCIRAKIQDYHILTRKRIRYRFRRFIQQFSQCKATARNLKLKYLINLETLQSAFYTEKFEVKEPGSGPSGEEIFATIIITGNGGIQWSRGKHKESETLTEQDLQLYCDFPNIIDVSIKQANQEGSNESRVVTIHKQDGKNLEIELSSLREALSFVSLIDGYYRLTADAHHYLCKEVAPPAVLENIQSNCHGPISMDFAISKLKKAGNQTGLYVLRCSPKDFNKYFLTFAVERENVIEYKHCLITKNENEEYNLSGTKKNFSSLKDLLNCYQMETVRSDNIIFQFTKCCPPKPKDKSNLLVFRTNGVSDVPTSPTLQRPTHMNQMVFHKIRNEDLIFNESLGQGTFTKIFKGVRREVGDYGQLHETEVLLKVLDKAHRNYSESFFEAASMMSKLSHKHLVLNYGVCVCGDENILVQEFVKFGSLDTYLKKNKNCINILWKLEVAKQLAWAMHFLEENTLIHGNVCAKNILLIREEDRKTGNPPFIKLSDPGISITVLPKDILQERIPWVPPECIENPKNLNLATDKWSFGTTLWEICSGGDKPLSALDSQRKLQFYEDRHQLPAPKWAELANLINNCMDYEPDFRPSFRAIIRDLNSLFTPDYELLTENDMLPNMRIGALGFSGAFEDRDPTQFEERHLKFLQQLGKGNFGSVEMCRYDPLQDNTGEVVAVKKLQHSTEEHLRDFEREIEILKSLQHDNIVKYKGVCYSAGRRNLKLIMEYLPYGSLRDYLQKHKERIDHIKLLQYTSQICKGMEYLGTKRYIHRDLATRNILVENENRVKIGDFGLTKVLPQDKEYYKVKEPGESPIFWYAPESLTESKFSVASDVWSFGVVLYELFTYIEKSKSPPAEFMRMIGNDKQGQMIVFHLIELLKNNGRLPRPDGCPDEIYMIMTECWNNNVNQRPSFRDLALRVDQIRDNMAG

Row | Structure (SMILES) | IC50 (JAK2) | IC50 (TYK2 [1]) | IC50 (JAK1 [2]) | Kp at 8 h ([3]; CSF/plasma, read-out: CSF (ng/ml)/ Plasma (ng/ml)) | Kp at 8 h ([3]; brain/plasma, read-out: Brain (ng/ml)/ Plasma (ng/ml)) | IC50 (TYK2 [4]) | Kp at 4 h ([5]; C57BL/6, CSF/plasma, read-out: CSF (ng/ml)/ Plasma (ng/ml)) | Kp at 4 h ([5]; C57BL/6, brain/plasma, read-out: Brain (ng/ml)/ Plasma (ng/ml)) | IC50 (JAK3) | IC50 (JAK1 [6])
1 | CCc1nc2cnc3ccoc3c2n1[C@H]1CC[C@H](CC#N)OC1 [Formula (I)] | > 200 nM | < 100 nM | < 10 nM | – | – | – | – | – | – | –
2 | Cc1nc2cnc3ccoc3c2n1[C@H]1CC[C@H](CC#N)CC1 [Formula (III)] | > 20 nM | < 10 nM | < 10 nM | > 0.15 | > 0.4 | < 100 nM | > 0.15 | > 0.3 | > 100 nM | < 300 nM
